Tested on: bronchoconstricting effects of a standard dose of acetylcholine
Assay: bronchodilation upon aerosol inhalation (inhibition of acetylcholine bronchoconstriction), method of Rosenthale et al.
Type: in vivo
Settings: guinea pig, i.v. acetylcholine dose producing ca. 30% bronchoconstriction
From the text: In using the compounds of the invention to produce bronchodilating effects in warm-blooded animals, they may be administered in a variety of dosage forms: oral, injectable, and aerosol inhalation. Aerosol inhalation is a preferred method because of its rapid onset of action, great potency, and specificity of action. The particular dosage to obtain the bronchodilating effect will vary with the particular compound employed, the particular animal involved, and the degree of bronchodilation desired. In the guinea pig, by aerosol inhalation, the dose to produce bronchodilation is from about 0.15 micrograms to about 25 micrograms, and preferably from about 0.15 to about 15 micrograms. The bronchodilation produced upon aerosol inhalation can be observed by the method of Rosenthale et al., J. Pharmacol. Exp. Ther., 178, 541 (1971). Using this procedure the following results were obtained:
*The dose (i.v.) of acetylcholine which produces a ca. 30%

| SMILES | Percent Inhibition of the Bronchoconstricting effects of a standard dose of acetylcholine (dose 1.5 μg) [%] | Percent Inhibition of the Bronchoconstricting effects of a standard dose of acetylcholine (dose 15 μg) [%] | Percent Inhibition of the Bronchoconstricting effects of a standard dose of acetylcholine (dose .015 μg) [%] | Percent Inhibition of the Bronchoconstricting effects of a standard dose of acetylcholine (dose .15 μg) [%] | Percent Inhibition of the Bronchoconstricting effects of a standard dose of acetylcholine (dose .0015 μg) [%] |
| --- | --- | --- | --- | --- | --- |
| C#CC(O)(CCCCC)CC[C@H]1[C@H](O)CC(=O)[C@@H]1C/C=C\CCCC(=O)O (stereo partly shown) [13,14-dihydro-15-ethynyl-PGE2, 13,14-Dihydro-15-Ethynyl-PGE2] | 100 | 91 | 94 | 96 | – |
| C#CC(O)(CCCCC)CC[C@@H]1[C@@H](C/C=C\CCCC(=O)O)[C@H](O)C[C@H]1O (stereo partly drawn) [13,14-dihydro-15-ethynyl-PGF2β, 13,14-Dihydro-15-Ethynyl PGF2β] | 44 | 63 | – | – | – |
| C#CC(O)(CCCCC)CC[C@H]1[C@H](O)CC(=O)[C@@H]1CCCCCCC(=O)O (stereo partly shown) [tetrahydro-15-ethynyl-PGE2, 15-Ethynyl-Tetrahydro-PGE2] | 100 | – | 86 | 99 | 51 |
| C#C[C@](O)(CCCCC)CC[C@H]1[C@H](O)CC(=O)[C@@H]1CCCCCCC(=O)O [tetrahydro-15β-ethynyl-PGE2, 15β-ethynyl-tetrahydro-PGE2] | – | – | 95 | 98 | 58 |

— patent US4151361A, “Prostaglandin derivatives” (American Home Products Corporation, priority 1978, dated 1979)
